Experimental data: paper PMC10808970, “Chloroplasts lacking class I glutaredoxins are functional but show a delayed recovery of protein cysteinyl redox state after oxidative challenge” (Redox Biology, 2023)

Target: T1, PpGRXC5 (Physcomitrium patens, UniProt A0A2K1KTP0)
T1 construct: gene LOC112280307; targeting peptide removed, starts at Ala120 to native stop; Gateway vector pETG-10A, E. coli Rosetta2; tag not described; active site YCPYC
T1 sequence (A0A2K1KTP0 120-228): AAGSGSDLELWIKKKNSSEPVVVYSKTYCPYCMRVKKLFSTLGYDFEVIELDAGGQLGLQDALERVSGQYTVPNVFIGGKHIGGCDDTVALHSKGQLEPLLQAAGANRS
Test: HED assay, GR-coupled NADPH oxidation at […] nm
Format: biochemical
Conditions: 0.3-1.5 mM HED varied, 1 mM GSH constant, 200 uM NADPH, yeast GR, 30 nM enzyme, 100 mM Tris-HCl, 1 mM EDTA, pH 7.9; actual substrate is the glutathione-mercaptoethanol mixed disulfide; read-out: Km^app

Work on `OCCSSCCO` [HED, bis(2-hydroxyethyl)disulfide] yielded a Km of 390 ± 110 µM.
